Assay results taken from patent publication US6500853B1, “Inhibitors of phospholipase enzymes” (Genetics Institute, LLC, priority 1998, dated 2002).
Values belong to the compound of their own block, whether it stands above or below them.

Target: T1, cPLA2 (Homo sapiens, UniProt P47712)
T1 sequence (P47712 1-749): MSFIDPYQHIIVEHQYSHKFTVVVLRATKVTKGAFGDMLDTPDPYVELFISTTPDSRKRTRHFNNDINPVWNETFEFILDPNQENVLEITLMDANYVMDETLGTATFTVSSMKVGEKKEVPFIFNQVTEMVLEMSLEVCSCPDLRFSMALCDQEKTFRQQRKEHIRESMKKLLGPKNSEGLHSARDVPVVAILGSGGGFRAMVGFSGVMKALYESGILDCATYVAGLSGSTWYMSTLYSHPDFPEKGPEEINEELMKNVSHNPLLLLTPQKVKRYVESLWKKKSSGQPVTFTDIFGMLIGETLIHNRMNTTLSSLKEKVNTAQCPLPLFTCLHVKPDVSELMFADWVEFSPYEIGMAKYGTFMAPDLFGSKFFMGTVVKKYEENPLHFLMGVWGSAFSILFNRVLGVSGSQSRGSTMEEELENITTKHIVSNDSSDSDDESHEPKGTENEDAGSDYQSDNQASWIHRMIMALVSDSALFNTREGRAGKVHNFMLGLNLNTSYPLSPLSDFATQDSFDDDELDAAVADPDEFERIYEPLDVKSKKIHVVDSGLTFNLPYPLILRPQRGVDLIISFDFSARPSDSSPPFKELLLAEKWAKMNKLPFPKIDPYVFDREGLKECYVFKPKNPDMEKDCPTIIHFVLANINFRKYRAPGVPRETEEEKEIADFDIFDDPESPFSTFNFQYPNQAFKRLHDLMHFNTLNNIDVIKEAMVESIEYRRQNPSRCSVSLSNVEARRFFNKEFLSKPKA
Experiment: Coumarin Assay (cPLA2 inhibition)
Format: biochemical
Conditions: for inhibition at 10 µM: CONCENTRATION 10 micromolar; for inhibition at 12.5 µM: CONCENTRATION 12.5 micromolar; for inhibition at 70 µM: CONCENTRATION 70 micromolar
Procedure: Table I reports data for the compounds described in the examples above in cPLA2 inhibition assays (described below). In the data columns of Tables I and II, assay results are reported as a percent inhibition at the concentration specified.
7-hydroxycoumarinyl 6-heptenoate was used as a monomeric substrate for cPLA2 as reported previously (Huang, Z. et al., 1994, Nalytical Biochemistry 222, 110-115). Inhibitors were mixed with 200 μL assay buffer (80 mM Heped, pH 7.5, 1 mM EDTA) containing 60 μM 7-hydroxycoumarinyl 6-heptenoate. The reaction was initiated by adding 4 μg cPLA2 in 50 μL assay buffer. Hydrolysis of the 7-hydroxycounarimyl 6-heptenoate ester was monitored in a fluorometer by exciting at 360 nm and monitoring emission at 460 nm. Enzyme activity is proportional to the increase in emission at 460 nm per minute. In the presence of a cPLA2 inhibitor, the rate of increase is less. The percent inhibition for corresponding concentrations of compounds herein in this Coumarin assay are provided below in Table I.

[1] = CONCENTRATION 50 micromolar, read-out: PERCENT INHIBITION @

inhibition at 2 µM (CONCENTRATION 2 micromolar, read-out: PERCENT INHIBITION @): 50% | inhibition at 2.5 µM (CONCENTRATION 2.5 micromolar, read-out: PERCENT INHIBITION @): 57%
SMILES: COc1cc(C(=O)NS(=O)(=O)c2nnc(NC(C)=O)s2)ccc1Cc1cn(C(c2ccccc2)c2ccccc2)c2ccc(NC(=O)OC3CCCC3)cc12 [Example 34, cyclopentyl N-(3-{4-[({[5-(acetylamino)-1,3,4-thiadiazol-2-yl]sulfonyl}amino)carbonyl]-2-methoxybenzyl}-1-benzhydryl-1H-indol-5-yl)carbamate]

inhibition at 10 µM (read-out: PERCENT INHIBITION @): 23% | inhibition at 20 µM (CONCENTRATION 20 micromolar, read-out: PERCENT INHIBITION @): 42% | inhibition at 41 µM (CONCENTRATION 41 micromolar, read-out: PERCENT INHIBITION @): 50%
SMILES: COc1cc(C(=O)NS(=O)(=O)c2ccc(N3N=C(C)CC3=O)cc2)ccc1Cc1cn(C(c2ccccc2)c2ccccc2)c2ccc(NC(=O)OC3CCCC3)cc12 [Example 35, cyclopentyl N-(1-benzhydryl-3-{2-methoxy-4[({[4-(3-methyl-5-oxo-4,5-dihydro-1H-pyrazol-1-yl)phenyl]sulfonyl}amino)carbonyl]benzyl}-1H-indol-5-yl)carbamate]

inhibition at 0.22 µM (CONCENTRATION 0.22 micromolar, read-out: PERCENT INHIBITION @): 50% | inhibition at 0.25 µM (CONCENTRATION 0.25 micromolar, read-out: PERCENT INHIBITION @): 60% | inhibition at 0.32 µM (CONCENTRATION 0.32 micromolar, read-out: PERCENT INHIBITION @): 50% | inhibition at 0.45 µM (CONCENTRATION 0.45 micromolar, read-out: PERCENT INHIBITION @): 50%
SMILES: COc1cc(C(=O)NS(=O)(=O)c2ccccc2C)ccc1Cc1cn(C(c2ccccc2)c2ccccc2)c2ccc([N+](=O)[O-])cc12 [Example 36, N-{4-[(1-benzhydryl-5-nitro-1H-indol-3-yl)methyl]-3-methoxybenzoyl}-2-methylbenzenesulfonamide]

inhibition at 12 µM (CONCENTRATION 12 micromolar, read-out: PERCENT INHIBITION @): 50% | inhibition at 14 µM (CONCENTRATION 14 micromolar, read-out: PERCENT INHIBITION @): 50%
SMILES: COc1cc(C(=O)NS(=O)(=O)c2ccccc2C)ccc1Cc1cn(C(c2ccccc2)c2ccccc2)c2ccc(NC(=O)C3CCCC3)cc12 [Example 43, N-{1-benzhydryl-3-[2-methoxy-4-({[(2-methylphenyl)sulfonyl]amino}carbonyl)benzyl]-1H-indol-5-yl}cyclopentanecarboxamide]

SMILES: O=C(Nc1cccc(C(=O)O)c1)C(=O)c1cn(Cc2ccc(COc3cc(C(F)(F)F)cc(C(F)(F)F)c3)cc2)c2ccccc12 [Example 60, 3-({2-[1-(4-{[3,5-bis(trifluoromethyl)phenoxy]methyl}benzyl)-1H-indol-3yl]-2oxoacetyl}amino)benzoic acid]
inhibition at 12.5 µM (read-out: PERCENT INHIBITION @): 50%

SMILES: O=C(Nc1cccc(C(=O)O)c1)C(=O)c1cn(CCCOc2ccc(Cc3ccccc3)cc2)c2ccccc12 [Example 62, 3-[(2-{1-[3-(4-benzylphenoxy)propyl]-1H-indol-3-yl}-2-oxoacetyl)amino]benzoic acid]
inhibition at 7 µM (CONCENTRATION 7 micromolar, read-out: PERCENT INHIBITION @): 50% | inhibition at 12.5 µM (read-out: PERCENT INHIBITION @): 86%

SMILES: O=C(Nc1cccc(C(=O)O)c1)C(=O)c1cn(Cc2ccccc2S(=O)(=O)Cc2ccccc2)c2ccccc12 [Example 64, 3-[(2-{1-[2-(benzylsulfonyl)benzyl]-1H-indol-3-yl}-2-oxoacetyl)amino]benzoic acid]
inhibition at 32 µM (CONCENTRATION 32 micromolar, read-out: PERCENT INHIBITION @): 50% | inhibition at 37 µM (CONCENTRATION 37 micromolar, read-out: PERCENT INHIBITION @): 50%

SMILES: O=C(O)C(=O)c1cn(Cc2ccc(Cc3ccccc3)cc2)c2ccc(OCc3ccccc3)cc12 [Example 69, 2-[1-(4-benzylbenzyl)-5-(benzyloxy)-1H-indol-3-yl]-2-oxoacetic acid]
inhibition at 12.5 µM (read-out: PERCENT INHIBITION @): 50%

SMILES: O=C(O)C(=O)c1cn(Cc2ccc(C(F)(F)F)cc2C(F)(F)F)c2ccc(OCc3ccccc3)cc12 [Example 70, 2-{5-(benzyloxy)-1-[2,4-bis(trifluoromethyl)benzyl]-1H-indol3-yl}-2-oxoacetic acid]
PERCENT INHIBITION @ (CONCENTRATION 50 micromolar): 40% | inhibition at 50 µM [1]: 39%

SMILES: O=C(Nc1cccc(C(=O)O)c1)C(=O)c1cn(Cc2ccc(Cc3ccccc3)cc2)c2ccc(OCc3ccccc3)cc12 [Example 71, 3-({2-[1-(4-benzylbenzyl)-5-(benzyloxy)-1H-indol-3-yl]-2-oxoacetyl}amino)benzoic acid]
inhibition at 1.5 µM (CONCENTRATION 1.5 micromolar, read-out: PERCENT INHIBITION @): 50% | inhibition at 3.5 µM (CONCENTRATION 3.5 micromolar, read-out: PERCENT INHIBITION @): 50% | inhibition at 3.8 µM (CONCENTRATION 3.8 micromolar, read-out: PERCENT INHIBITION @): 50% | inhibition at 6 µM (CONCENTRATION 6 micromolar, read-out: PERCENT INHIBITION @): 69%

SMILES: O=C(Nc1cc(C(=O)O)cc(C(=O)O)c1)C(=O)c1cn(Cc2ccc(C(F)(F)F)cc2C(F)(F)F)c2ccc(OCc3ccccc3)cc12 [Example 72, 5-[(2-{5-(benzyloxy)-1-[2,4-bis(trifluoromethyl)benzyl]-1H-indol-3-yl}-2-oxoacetyl)amino]isophthalic acid]
inhibition at 12.5 µM (read-out: PERCENT INHIBITION @): 50%

inhibition at 160 µM (CONCENTRATION 160 micromolar, read-out: PERCENT INHIBITION @): 50% | inhibition at 180 µM (CONCENTRATION 180 micromolar, read-out: PERCENT INHIBITION @): 50%
SMILES: O=C(O)Cc1cn(CC2CC2)c2ccc(Br)cc12 [Example 77, 2-[5-bromo-1-(cyclopropylmethyl)-1H-indol-3-yl]acetic acid]

inhibition at 80 µM (CONCENTRATION 80 micromolar, read-out: PERCENT INHIBITION @): 50% | inhibition at 110 µM (CONCENTRATION 110 micromolar, read-out: PERCENT INHIBITION @): 50%
SMILES: O=C(O)Cc1cn(CC2CC2)c2ccc(-c3cccs3)cc12 [Example 78, 2-[1-(cyclopropylmethyl)-5-(2-thienyl)-1H-indol-3-yl]acetic acid]

inhibition at 60 µM (CONCENTRATION 60 micromolar, read-out: PERCENT INHIBITION @): 50% | inhibition at 65 µM (CONCENTRATION 65 micromolar, read-out: PERCENT INHIBITION @): 50%
SMILES: O=C(O)Cc1cn(CC2CC2)c2ccc(-c3cccc(C(F)(F)F)c3)cc12 [Example 79, 2-{1-(cyclopropylmethyl)-5-[3-(trifluoromethyl)phenyl]-1H-indol-3-yl}acetic acid]

inhibition at 70 µM (read-out: PERCENT INHIBITION @): 50% | inhibition at 100 µM (CONCENTRATION 100 micromolar, read-out: PERCENT INHIBITION @): 46%
SMILES: O=C(O)Cc1cn(Cc2ccccc2)c2ccc(-c3ccccc3)cc12 [Example 81, 2-(1-benzyl-5-phenyl-1H-indol-3-yl)acetic acid]

inhibition at 46 µM (CONCENTRATION 46 micromolar, read-out: PERCENT INHIBITION @): 50% | inhibition at 50 µM [1]: 50%
SMILES: O=C1NC(=O)/C(=C\c2cn(CCCOc3cccc(Cc4ccccc4)c3)c3ccccc23)S1 [Example 82A, 5-((E)-{1-[3-(3-benzylphenoxy)propyl]-1H-indol-3-yl}methylidene)-1,3-thiazolane-2,4-dione]

inhibition at 8 µM (CONCENTRATION 8 micromolar, read-out: PERCENT INHIBITION @): 50% | inhibition at 10 µM (read-out: PERCENT INHIBITION @): 50%
SMILES: O=C(O)CN1C(=O)S/C(=C/c2cn(CCCOc3cccc(Cc4ccccc4)c3)c3ccccc23)C1=O [Example 82C, 2-[5-((E)-{1-[3-(3-benzylphenoxy)propyl]-1H-indol-3-yl}methylidene)-2,4-dioxo-1,3-thiazolan-3-yl]acetic acid]

inhibition at 48 µM (CONCENTRATION 48 micromolar, read-out: PERCENT INHIBITION @): 50% | inhibition at 70 µM (read-out: PERCENT INHIBITION @): 50%
SMILES: O=C(O)CCc1cn(CCCOc2cccc(Cc3ccccc3)c2)c2ccccc12 [Example 83, 3-{1-[3-(3-benzylphenoxy)propyl]-1H-indol-3-yl}propanoic acid]

PERCENT INHIBITION @ (CONCENTRATION 1.25 micromolar): 53% | inhibition at 1.25 µM (CONCENTRATION 1.25 micromolar, read-out: PERCENT INHIBITION @): 50% | inhibition at 1.32 µM (CONCENTRATION 1.32 micromolar, read-out: PERCENT INHIBITION @): 50%
SMILES: Cc1c(Cc2ccc(C(=O)O)cc2)c2cc(Cl)ccc2n1C(c1ccccc1)c1ccccc1 [Example 88, 4-[(1-benzhydryl-5-chloro-2-methyl-1H-indol-3-yl)methyl]benzoic acid]
